Measured values: patent US11197914B2, “GLP-1R/GCGR dual target agonist polypeptide for treatment of fatty liver diseases, hyperlipemia and arteriosclerosis” (Shenzhen Turier Biotech Co., Ltd., priority 2016, dated 2021)
*1 amine or outer side, *2 acyl side, *3 side chain or, on linkers, in order; H or OH if unused. Primed or numbered codes have the meaning given here. Where no end group is shown, it is not given here. Side-chain parts run from the residue outwards. [ ]: non-standard residue; d: D form. The star is where a group is joined. C18 diacid = O=C(O)CCCCCCCCCCCCCCCCC(=O)*; C16 diacid = O=C(O)CCCCCCCCCCCCCCC(=O)*; γGlu = O=C(O)[C@H](CCC(=O)[*:2])N[*:1]; Stearoyl = CCCCCCCCCCCCCCCCCC(=O)*; Palmitoyl = CCCCCCCCCCCCCCCC(=O)*; PEG2′ = not defined here; Aib = CC(C)(N)C(=O)O

What was measured:
[1] = tested on: Hepatic stellate cell strain LX-2; assay: In vitro inhibition of hepatic fibrosis: expression of LX-2 cell activation marker α-SMA (Western Blot, α-SMA/β-actin); type: cell-based, human; details: LX-2 cells; for Relative expression of α-SMA (α-SMA/β-actin, %): 48 hours, negative control = 100%; for Effect on expression of α-SMA (in words): 1 μM and 5 μM
Protocol: Hepatic stellate cell strain LX-2 was selected to study and observe the effect of different doses of test substances on the expression of LX-2 cell activation marker […]. Hepatic stellate cell LX-2 was laid on 35 mm cell culture plate, cultured with DMEM (high glucose)+10% FBS+1% double-antibody culture medium (Thermo Fisher), placed overnight when the cells grew to 70% convergence at 37° C. and under the condition of 5% CO2, and treated with the above compounds 1-37 (dissolved in PBS) for 48 hours the next day morning to extract cell protein, carry out Western Blot, and take β-actin as internal reference and analyze the expression quantities of α-SMA and β-actin by a gray level of Image J 1.50i. PBS with the same volume as that in experimental group was added in negative control. […] The integrating gray level of α-SMA/β-actin in the negative control group was 100% to analyze the in vitro inhibition activity of hepatic fibrosis of tested polypeptide.

[2] = tested on: CCl4-induced hepatic fibrosis mice; assay: CCl4-induced hepatic fibrosis in mice; type: in vivo, C57 mice; details: 500 μg/kg subcutaneous once every two days, 6 weeks
Protocol: 6-8-week-old C57 mice with body weight of 20-25 g at SPF level were provided by Guangdong Medical Laboratory Animal Center and tested by SPF level laboratory in Laboratory Animal Center of Guangdong Pharmaceutical University. C57 mice were divided into control group, hepatic fibrosis model group and treatment group, 8 mice for each group. A mouse was subject to intraperitoneal injection with 20% CCl4 (2 mL/kg, diluted with olive oil at ratio of 1:4) twice a week for continuous 6 weeks to form a stable hepatic fibrosis animal model. For the treatment group, one of subcutaneous injection compounds 2, 6 and 22 with 500 μg/kg of body weight was used respectively once every two days for continuous 6 weeks. Olive oil with same volume and same frequency was administered for the control group and stopped until the end of 6-week experiment. After the end of the experiment, the mice were subject to anesthesia to collect serum and liver specimens. The liver was fixed with 10% formalin and embedded with paraffin.

| Substance | Relative expression of α-SMA (α-SMA/β-actin, %) ([1]; 1 μM) [%] | also measured |
| --- | --- | --- |
| His-(D-Ser)-Gln-Gly-Thr-Phe-Thr-Ser-Asp-Tyr-Ser-Lys-Tyr-Leu-Asp-Ser-Lys(PEG2-PEG2-γGlu-CO(CH2)16CH3)-Ala-Ala-His-Asp-Phe-Val-Glu-Trp-Leu-Leu-Asn-Gly-Gly-Pro-Ser-Ser-Gly-Ala-Pro-Pro-Pro-Ser-NH2 (H[dS]QGTFTSDYSKYLDSK([PEG2′-PEG2′-γGlu-Stearoyl])AAHDFVEWLLNGGPSSGAPPPS-NH2) [Compound 22] | 90.56 | ALT level of serum [2]: obviously reduce; CCl4-induced liver injury and fibrosis stage (HE, Sirius Red) [2]: obviously improved |
| His-Aib-Gln-Gly-Thr-Phe-Thr-Ser-Asp-Lys(PEG2-PEG2-γGlu-CO(CH2)14CH3)-Ser-Lys-Tyr-Leu-Asp-Aib-Arg-Arg-Ala-Gln-Asp-Phe-Val-Gln-Trp-Leu-Leu-Asp-Gly-Gly-Pro-Ser-Ser-Gly-Ala-Pro-Pro-Pro-Ser-NH2 (H[Aib]QGTFTSDK([PEG2′-PEG2′-γGlu-Palmitoyl])SKYLD[Aib]RRAQDFVQWLLDGGPSSGAPPPS-NH2) [Compound 8] | 80.25 |  |
| His-Aib-Gln-Gly-Thr-Phe-Thr-Ser-Asp-Lys(PEG2-PEG2-γGlu-CO(CH2)16CH3)-Ser-Lys-Tyr-Leu-Asp-Glu-Arg-Arg-Ala-Gln-Asp-Phe-Val-Gln-Trp-Leu-Leu-Asp-Gly-Gly-Pro-Ser-Ser-Gly-Ala-Pro-Pro-Pro-Ser-NH2 (H[Aib]QGTFTSDK([PEG2′-PEG2′-γGlu-Stearoyl])SKYLDERRAQDFVQWLLDGGPSSGAPPPS-NH2) [Compound 14] | 92.80 |  |
| His-(D-Ser)-Gln-Gly-Thr-Phe-Thr-Ser-Asp-Lys(PEG2-PEG2-CO(CH2)16CH3)-Ser-Lys-Tyr-Leu-Asp-Aib-Arg-Arg-Ala-Gln-Asp-Phe-Val-Gln-Trp-Leu-Met-Asn-Thr-Gly-Gly-Pro-Ser-Ser-Gly-Ala-Pro-Pro-Pro-Ser-NH2 (H[dS]QGTFTSDK([PEG2′-PEG2′-Stearoyl])SKYLD[Aib]RRAQDFVQWLMNTGGPSSGAPPPS-NH2) [Compound 32] | 97.14 |  |
| His-(D-Ser)-Gln-Gly-Thr-Phe-Thr-Ser-Asp-Lys(PEG2-PEG2-γGlu-CO(CH2)16CO2H)-Ser-Lys-Tyr-Leu-Asp-Aib-Arg-Arg-Ala-Gln-Asp-Phe-Val-Gln-Trp-Leu-Met-Asn-Thr-Gly-Gly-Pro-Ser-Ser-Gly-Ala-Pro-Pro-Pro-Ser-NH2 (H[dS]QGTFTSDK([PEG2′-PEG2′-γGlu-C18 diacid])SKYLD[Aib]RRAQDFVQWLMNTGGPSSGAPPPS-NH2) [Compound 5] | 67.94 | Inhibition of LX-2 cell activation marker α-SMA (in words, from Table 2) [1]: obviously reduce; Effect on expression of α-SMA (in words) ([1]; 0.1 μM): reduce the expression of α-SMA under all concentrations; Relative expression of α-SMA (α-SMA/β-actin, %) ([1]; 0.1 μM): 66.04%; Relative expression of α-SMA (α-SMA/β-actin, %) ([1]; 5 μM): 33.45% |
| His-Aib-Gln-Gly-Thr-Phe-Thr-Ser-Asp-Lys(PEG2-PEG2-γGlu-CO(CH2)16CO2H)-Ser-Lys-Tyr-Leu-Asp-Aib-Arg-Arg-Ala-Gln-Asp-Phe-Val-Gln-Trp-Leu-Leu-Asp-Gly-Gly-Pro-Ser-Ser-Gly-Ala-Pro-Pro-Pro-Ser-NH2 (H[Aib]QGTFTSDK([PEG2′-PEG2′-γGlu-C18 diacid])SKYLD[Aib]RRAQDFVQWLLDGGPSSGAPPPS-NH2) [Compound 19] | 43.46 | Inhibition of LX-2 cell activation marker α-SMA (in words, from Table 2) [1]: obviously reduce; Effect on expression of α-SMA (in words) ([1]; 0.1 μM): reduce the expression of α-SMA under all concentrations; Relative expression of α-SMA (α-SMA/β-actin, %) ([1]; 0.1 μM): 71.48%; Relative expression of α-SMA (α-SMA/β-actin, %) ([1]; 5 μM): 39.75% |
| His-(D-Ser)-Gln-Gly-Thr-Phe-Thr-Ser-Asp-Tyr-Ser-Lys-Tyr-Leu-Asp-Aib-Lys(PEG2-PEG2-CO(CH2)16CO2H)-Arg-Ala-Gln-Asp-Phe-Val-Gln-Trp-Leu-Met-Asn-Thr-Gly-Gly-Pro-Ser-Ser-Gly-Ala-Pro-Pro-Pro-Ser-NH2 (H[dS]QGTFTSDYSKYLD[Aib]K([PEG2′-PEG2′-C18 diacid])RAQDFVQWLMNTGGPSSGAPPPS-NH2) [Compound 10] | 71.49 |  |
| His-(D-Ser)-Gln-Gly-Thr-Phe-Thr-Ser-Asp-Tyr-Ser-Lys-Tyr-Leu-Asp-Glu-Lys-Ala-Ala-Lys(PEG2-PEG2-γGlu-CO(CH2)16CH3)-Glu-Phe-Ile-Glu-Trp-Leu-Leu-Asn-Gly-Gly-Pro-Ser-Ser-Gly-Ala-Pro-Pro-Pro-Ser-NH2 (H[dS]QGTFTSDYSKYLDEKAAK([PEG2′-PEG2′-γGlu-Stearoyl])EFIEWLLNGGPSSGAPPPS-NH2) [Compound 28] | 87.62 |  |
| His-(D-Ser)-Gln-Gly-Thr-Phe-Thr-Ser-Asp-Tyr-Ser-Lys(PEG2-PEG2-CO(CH2)14CH3)-Lys-Leu-Asp-Aib-Arg-Arg-Ala-Gln-Asp-Phe-Val-Gln-Trp-Leu-Met-Asn-Thr-Gly-Gly-Pro-Ser-Ser-Gly-Ala-Pro-Pro-Pro-Ser-NH2 (H[dS]QGTFTSDYSK([PEG2′-PEG2′-Palmitoyl])KLD[Aib]RRAQDFVQWLMNTGGPSSGAPPPS-NH2) [Compound 9] | 75.86 |  |
| His-(D-Ser)-Gln-Gly-Thr-Phe-Thr-Ser-Asp-Tyr-Ser-Lys-Tyr-Leu-Asp-Glu-Lys-Ala-Ala-Lys(PEG2-PEG2-γGlu-CO(CH2)14CH3)-Glu-Phe-Ile-Glu-Trp-Leu-Leu-Asn-Gly-Gly-Pro-Ser-Ser-Gly-Ala-Pro-Pro-Pro-Ser-NH2 (H[dS]QGTFTSDYSKYLDEKAAK([PEG2′-PEG2′-γGlu-Palmitoyl])EFIEWLLNGGPSSGAPPPS-NH2) [Compound 29] | 89.36 |  |
| His-(D-Ser)-Gln-Gly-Thr-Phe-Thr-Ser-Asp-Tyr-Ser-Lys-Tyr-Leu-Asp-Glu-Lys-Ala-Ala-Lys(PEG2-PEG2-γGlu-CO(CH2)16CO2H)-Glu-Phe-Ile-Glu-Trp-Leu-Leu-Arg-Ala-NH2 (H[dS]QGTFTSDYSKYLDEKAAK([PEG2′-PEG2′-γGlu-C18 diacid])EFIEWLLRA-NH2) [Compound 18] | 75.60 |  |
| His-(D-Ser)-Gln-Gly-Thr-Phe-Thr-Ser-Asp-Lys(PEG2-PEG2-γGlu-CO(CH2)14CH3)-Ser-Lys-Tyr-Leu-Asp-Aib-Arg-Arg-Ala-Gln-Asp-Phe-Val-Gln-Trp-Leu-Met-Asn-Thr-Gly-Gly-Pro-Ser-Ser-Gly-Ala-Pro-Pro-Pro-Ser-NH2 (H[dS]QGTFTSDK([PEG2′-PEG2′-γGlu-Palmitoyl])SKYLD[Aib]RRAQDFVQWLMNTGGPSSGAPPPS-NH2) [Compound 4] | 88.50 |  |
| His-(D-Ser)-Gln-Gly-Thr-Phe-Thr-Ser-Asp-Tyr-Ser-Lys(PEG2-PEG2-γGlu-CO(CH2)16CO2H)-Lys-Leu-Asp-Aib-Arg-Arg-Ala-Gln-Asp-Phe-Val-Gln-Trp-Leu-Met-Asn-Thr-Gly-Gly-Pro-Ser-Ser-Gly-Ala-Pro-Pro-Pro-Ser-NH2 (H[dS]QGTFTSDYSK([PEG2′-PEG2′-γGlu-C18 diacid])KLD[Aib]RRAQDFVQWLMNTGGPSSGAPPPS-NH2) [Compound 20] | 68.39 | Inhibition of LX-2 cell activation marker α-SMA (in words, from Table 2) [1]: obviously reduce |
| His-(D-Ser)-Gln-Gly-Thr-Phe-Thr-Ser-Asp-Tyr-Ser-Lys-Tyr-Leu-Asp-Lys(PEG2-PEG2-CO(CH2)16CO2H)-Arg-Arg-Ala-Gln-Asp-Phe-Val-Gln-Trp-Leu-Met-Asn-Thr-Gly-Gly-Pro-Ser-Ser-Gly-Ala-Pro-Pro-Pro-Ser-NH2 (H[dS]QGTFTSDYSKYLDK([PEG2′-PEG2′-C18 diacid])RRAQDFVQWLMNTGGPSSGAPPPS-NH2) [Compound 35] | 61.28 | Inhibition of LX-2 cell activation marker α-SMA (in words, from Table 2) [1]: obviously reduce |
| His-(D-Ser)-Gln-Gly-Thr-Phe-Thr-Ser-Asp-Tyr-Ser-Lys-Tyr-Leu-Asp-Glu-Lys-Ala-Ala-Lys(PEG2-PEG2-γGlu-CO(CH2)14CO2H)-Glu-Phe-Ile-Glu-Trp-Leu-Leu-Asn-Gly-Gly-Pro-Ser-Ser-Gly-Ala-Pro-Pro-Pro-Ser-NH2 (H[dS]QGTFTSDYSKYLDEKAAK([PEG2′-PEG2′-γGlu-C16 diacid])EFIEWLLNGGPSSGAPPPS-NH2) [Compound 27] | 92.34 |  |
| His-Aib-Gln-Gly-Thr-Phe-Thr-Ser-Asp-Lys(PEG2-PEG2-γGlu-CO(CH2)16CH3)-Ser-Lys-Tyr-Leu-Asp-Aib-Arg-Arg-Ala-Gln-Asp-Phe-Val-Gln-Trp-Leu-Leu-Asp-Gly-Gly-Pro-Ser-Ser-Gly-Ala-Pro-Pro-Pro-Ser-NH2 (H[Aib]QGTFTSDK([PEG2′-PEG2′-γGlu-Stearoyl])SKYLD[Aib]RRAQDFVQWLLDGGPSSGAPPPS-NH2) [Compound 12] | 72.99 |  |
